# In US5948780A, “Method for treating and preventing heart failure and ventricular dilatation” (priority 1997, dated 1999):
# Target: T1, MMP-2 (Gelatinase A) (Homo sapiens, UniProt P08253)
# T1 sequence (P08253 110-660): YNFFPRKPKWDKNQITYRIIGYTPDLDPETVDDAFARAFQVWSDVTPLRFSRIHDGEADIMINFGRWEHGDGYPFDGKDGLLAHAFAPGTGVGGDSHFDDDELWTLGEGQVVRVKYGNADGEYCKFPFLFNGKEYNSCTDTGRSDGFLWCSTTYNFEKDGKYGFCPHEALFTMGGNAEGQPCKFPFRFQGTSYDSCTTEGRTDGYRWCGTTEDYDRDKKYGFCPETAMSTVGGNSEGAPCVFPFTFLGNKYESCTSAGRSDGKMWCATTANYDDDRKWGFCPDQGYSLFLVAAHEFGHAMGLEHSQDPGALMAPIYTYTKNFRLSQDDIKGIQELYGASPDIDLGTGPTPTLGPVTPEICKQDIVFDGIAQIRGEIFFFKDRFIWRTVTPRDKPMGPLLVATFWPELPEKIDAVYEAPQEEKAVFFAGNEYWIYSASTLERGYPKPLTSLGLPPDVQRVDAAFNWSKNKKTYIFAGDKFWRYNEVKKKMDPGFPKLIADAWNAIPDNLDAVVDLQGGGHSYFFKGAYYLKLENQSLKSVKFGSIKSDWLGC
# Assay: biochemical
# Conditions: read-out: IC50 MMP2
# Protocol: (§1) The assays measure the amount by which a test compound reduces the hydrolysis of a thiopeptolide substrate caused by a matrix metalloproteinase enzyme.
# (§2) Thiopeptolide substrates show virtually no decomposition or hydrolysis in the absence of a matrix metalloproteinase enzyme. A typical thiopeptolide substrate commonly utilized for assays is Ac-Pro-Leu-Gly-thioester-Leu-Leu-Gly-O Et. […] Assays are carried out with and without matrix metalloproteinase inhibitor compounds, and the amount of hydrolysis is compared for a determination of inhibitory activity of the test compounds.
row,SMILES,IC50 [nM]
1,O=C(Cc1ccccc1)N[C@@H](CC(=O)c1ccc2oc3ccccc3c2c1)C(=O)O [(S)-4-Dibenzofuran-2-yl-4-oxo-2-phenylacetylamino-butyric acid],84

# Target: MMP-3 (stromelysin) (Homo sapiens, UniProt P08254)
# Sequence (P08254 100-477): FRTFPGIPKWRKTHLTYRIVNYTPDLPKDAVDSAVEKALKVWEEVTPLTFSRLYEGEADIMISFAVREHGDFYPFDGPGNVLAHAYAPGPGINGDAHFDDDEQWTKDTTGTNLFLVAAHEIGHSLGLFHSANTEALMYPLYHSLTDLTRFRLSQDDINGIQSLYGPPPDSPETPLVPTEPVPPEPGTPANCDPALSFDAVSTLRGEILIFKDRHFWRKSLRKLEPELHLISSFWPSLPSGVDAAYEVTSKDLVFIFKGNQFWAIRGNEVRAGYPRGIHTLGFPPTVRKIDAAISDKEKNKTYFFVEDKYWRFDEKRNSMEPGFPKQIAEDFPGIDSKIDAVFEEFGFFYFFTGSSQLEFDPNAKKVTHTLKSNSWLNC
# Assay: biochemical
# Format: biochemical
# Conditions: read-out: IC50 MMP3
# Protocol: as §1, §2
row,SMILES,IC50 [nM]
1,O=C(O)CCC(O)c1ccc(-c2ccc(Cl)cc2)cc1 (racemic) [(±)-4-(4'-Chloro-biphenyl-4-yl)-4-hydroxy-butyric acid],280
2,O=C(O)CCC(=NO)c1ccc(-c2ccc(Br)cc2)cc1 [4-(4'-Bromo-biphenyl-4-yl)-4-hydroxyimino-butyric acid],110
3,CN(C)N=C(CCC(=O)O)c1ccc(-c2ccc(Cl)cc2)cc1 [4-(4'-Chloro-biphenyl-4-yl)-4-(dimethylhydrazono)-butyric acid],930
4,O=C(O)CCC(=NO)c1ccc(-c2ccc(Cl)cc2)cc1 [4-(4'-Chloro-biphenyl-4-yl)-4-hydroxyimino-butyric acid],120
5,O=C(Cc1ccccc1)N[C@@H](CC(=O)c1ccc2oc3ccccc3c2c1)C(=O)O [(S)-4-Dibenzofuran-2-yl-4-oxo-2-phenylacetylamino-butyric acid],330
6,"CC(C)CC(CC(=O)NO)C(=O)N[C@@H](CC(C)C)C(=O)N[C@@H](Cc1ccccc1)C(N)=O (stereo partly shown) [Compound U24522, reference compound]",20
